Experimental data published in ChEMBL document CHEMBL4842340, “Development of Cagrilintide, a Long-Acting Amylin Analogue” (J Med Chem, 2021).
In brackets after ≈: the same amount, converted by molar mass. *1 amine or outer side, *2 acyl side, *3 side chain or, on linkers, in order; H or OH if unused. Where a SMILES comes first, the peptide text is derived from it. Bridges are numbered along the chain shown (N, C = ends). [ ]: non-standard residue; d: D form. The star is where a group is joined. C20 diacid = O=C(O)CCCCCCCCCCCCCCCCCCC(=O)*; γGlu = O=C(O)[C@H](CCC(=O)[*:2])N[*:1]; AEEA = NCCOCCOCC(=O)O

What was measured:
[1] = Solubility of the compound in lactate at pH 3 by UPLC analysis; type: physicochemical; conditions: lactate buffer
[2] = Displacement of [125I]-amylin from rat AMY3R (CTR+RAMP3) expressed in BHK-13 cells measured after 120 mins by scintillation proximity assay; type: cell-based
Insulin (Homo sapiens) [3] = target: Insulin (Homo sapiens) (UniProt P01308); experiment: Effect on insulin (unknown origin) amyloid fibril formation assessed as peptide recovery in glycyl-glycine buffer at pH 4 measured after 45 hrs by thioflavin-T fluorescence assay relative to control; parameters: concentration or dose not given beside the values
Insulin (Homo sapiens), sequence (P01308 whole entry): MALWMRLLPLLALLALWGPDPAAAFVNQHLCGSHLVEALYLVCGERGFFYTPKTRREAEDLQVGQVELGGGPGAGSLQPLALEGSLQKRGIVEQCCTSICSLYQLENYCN

Rattus norvegicus [4] = species on record: Rattus norvegicus; experiment: Ratio of IC50 for displacement of [125I]-calcitonin from rat calcitonin receptor expressed in tk-ts 13 cells to IC50 for displacement of [125I]-amylin from rat AMY3R (CTR+RAMP3) expressed in BHK-13 cells; type: cell-based
[5] = Displacement of [125I]-amylin from human AMY3R (CTR+RAMP3) expressed in BHK-13 cells measured after 120 mins by scintillation proximity assay; type: cell-based
[6] = Solubility of the compound in lactate at pH 4 by UPLC analysis; type: physicochemical; conditions: lactate buffer
[7] = Agonist activity at human calcitonin receptor expressed in BHK570 cells assessed as increase in intracellular cAMP concentration incubated for 3 hrs in absence of albumin by CRE luciferase reporter gene assay; type: cell-based; conditions: BHK570, 3 h
Homo sapiens [8] = species on record: Homo sapiens; experiment: Ratio of EC50 for human calcitonin receptor expressed in BHK570 cells to EC50 for human AMY3R (CT+RAMP3) expressed in Hollex1 cells; type: cell-based
Insulin (Homo sapiens) [9] = target: Insulin (Homo sapiens) (UniProt P01308); experiment: Effect on insulin (unknown origin) amyloid fibril formation assessed as lag time in glycyl-glycine buffer at pH 4 measured after 45 hrs by thioflavin-T fluorescence assay
Rattus norvegicus [10] = experiment: Reduction in food intake in Sprague-Dawley rat at 3 nmol/kg, sc administered as single dose measured after 24 to 48 hrs relative to control; type: functional; parameters: scale not given: the % may be the effect or the level left; conditions: time 24-48 hrs
[11] = Solubility of the compound in bis-tris propane at pH 7.5 by UPLC analysis; type: physicochemical; conditions: bis-tris propane buffer
[12] = Solubility of the compound in bis-tris propane at pH 8 by UPLC analysis; type: physicochemical; conditions: bis-tris propane buffer
Rattus norvegicus [13] = species on record: Rattus norvegicus; experiment: Ratio of EC50 for rat calcitonin receptor expressed in BHK-13 cells to EC50 for rat AMY3R (CT+RAMP3) expressed in tk-ts13 cells; type: cell-based
[14] = Solubility of the compound in lactate at pH 5 by UPLC analysis; type: physicochemical; conditions: lactate buffer
[15] = Agonist activity at human AMY3R (CT+RAMP3) expressed in Hollex1 cells incubated for 3 hrs by luminescence assay; type: cell-based; conditions: Hollex1, 3 h
[16] = Agonist activity at rat calcitonin receptor expressed in BHK-13 cells assessed as increase in intracellular cAMP concentration incubated for 25 mins by CRE luciferase reporter gene assay; type: cell-based; conditions: BHK-13, 25 min
[17] = Solubility of the compound in bis-tris propane at pH 6 by UPLC analysis; type: physicochemical; conditions: bis-tris propane buffer
[18] = Agonist activity at rat AMY3R (CT+RAMP3) expressed in tk-ts13 cells assessed as increase in intracellular cAMP level incuabted for 25 mins by CRE luciferase reporter gene assay; type: cell-based; conditions: tk-ts13, 25 min
[19] = Displacement of [125I]-calcitonin from human calcitonin receptor expressed in tk-ts 13 cells measured after 120 mins by scintillation proximity assay; type: cell-based; conditions: tk-ts13
[20] = Displacement of [125I]-calcitonin from rat calcitonin receptor expressed in tk-ts 13 cells measured after 120 mins by scintillation proximity assay; type: cell-based; conditions: tk-ts13
Rattus norvegicus [21] = experiment: Reduction in food intake in Sprague-Dawley rat at 3 nmol/kg, sc administered as single dose measured upto 24 hrs relative to control; type: functional; parameters: scale not given: the % may be the effect or the level left; conditions: time hrs <=24
Homo sapiens [22] = species on record: Homo sapiens; experiment: Ratio of IC50 for displacement of [125I]-calcitonin from human calcitonin receptor expressed in tk-ts 13 cells to IC50 for displacement of [125I]-amylin from human AMY3R (CTR+RAMP3) expressed in BHK-13 cells; type: cell-based
[23] = Solubility of the compound in bis-tris propane at pH 6.5 by UPLC analysis; type: physicochemical; conditions: bis-tris propane buffer
[24] = Solubility of the compound in bis-tris propane at pH 7 by UPLC analysis; type: physicochemical; conditions: bis-tris propane buffer

Row | SMILES | solubility [1] [µM] | IC50 [2] [nM] | Activity (Insulin (Homo sapiens) [3]) [%] | Ratio IC50 (Rattus norvegicus [4]) | IC50 [5] [nM] | solubility [6] [µM] | EC50 [7] [nM] | Ratio EC50 (Homo sapiens [8]) | TIME (Insulin (Homo sapiens) [9]) [h] | Activity (Rattus norvegicus [10]) [%] | solubility [11] [µM] | solubility [12] [µM] | Ratio EC50 (Rattus norvegicus [13]) | solubility [14] [µM] | EC50 [15] [nM] | solubility [17] [µM] | IC50 [19] [nM] | IC50 [20] [nM] | Activity (Rattus norvegicus [21]) [%] | Ratio IC50 (Homo sapiens [22]) | also measured
1 | CC[C@H](C)[C@H](NC(=O)[C@@H]1CCCN1C(=O)CNC(=O)[C@H](Cc1ccccc1)NC(=O)[C@H](CC(N)=O)NC(=O)[C@H](CC(N)=O)NC(=O)[C@H](CO)NC(=O)[C@H](CO)NC(=O)[C@H](CCCNC(=N)N)NC(=O)[C@H](Cc1cnc[nH]1)NC(=O)[C@H](CC(C)C)NC(=O)[C@H](Cc1ccccc1)NC(=O)[C@H](CCC(=O)O)NC(=O)[C@H](C)NC(=O)[C@H](CC(C)C)NC(=O)[C@H](CCCNC(=N)N)NC(=O)[C@H](CCC(N)=O)NC(=O)[C@@H](NC(=O)[C@H](C)NC(=O)[C@@H]1CSSC[C@H](NC(=O)[C@H](CCCCN)NC(=O)[C@@H](CCCNC(=N)N)NC(=O)[C@@H](CCCNC(=N)N)NC(=O)COCCOCCNC(=O)COCCOCCNC(=O)CC[C@H](NC(=O)CCCCCCCCCCCCCCCCCCC(=O)O)C(=O)O)C(=O)N[C@@H](CC(N)=O)C(=O)N[C@@H]([C@@H](C)O)C(=O)N[C@@H](C)C(=O)N[C@@H]([C@@H](C)O)C(=O)N1)[C@@H](C)O)C(=O)N[C@@H](CC(C)C)C(=O)N1CCC[C@H]1C(=O)N1CCC[C@H]1C(=O)N[C@H](C(=O)N[C@@H](CC(N)=O)C(=O)N[C@H](C(=O)NCC(=O)N[C@@H](CO)C(=O)N[C@@H](CC(N)=O)C(=O)N[C@H](C(=O)N[C@@H](Cc1ccc(O)cc1)C(N)=O)[C@@H](C)O)C(C)C)[C@@H](C)O ({C20 diacid-γGlu-AEEA-AEEA}-[dR][dR]KCNTATCATQRLAEFLHRSSNNFGPILPPTNVGSNTY-NH2; disulfide 4-9) | 200 (≈ 1020 µg/mL) | 0.03 | 87 | 5 | 0.052 | 200 (≈ 1020 µg/mL) | 0.608 | 8 | 45 | 0 | 200 (≈ 1020 µg/mL) | 200 (≈ 1020 µg/mL) | 14 | 200 (≈ 1020 µg/mL) | 0.078 | 200 (≈ 1020 µg/mL) | 0.085 | 0.156 | 24 | 2 | EC50 [16]: 1.89 nM; EC50 [18]: 0.132 nM
2 | CC[C@H](C)[C@H](NC(=O)[C@@H]1CCCN1C(=O)CNC(=O)[C@H](Cc1ccccc1)NC(=O)[C@H](CC(N)=O)NC(=O)[C@H](CC(N)=O)NC(=O)[C@H](CO)NC(=O)[C@H](CO)NC(=O)[C@H](Cc1cnc[nH]1)NC(=O)[C@H](Cc1cnc[nH]1)NC(=O)[C@H](CC(C)C)NC(=O)[C@H](Cc1ccccc1)NC(=O)[C@H](CCC(=O)O)NC(=O)[C@H](C)NC(=O)[C@H](CC(C)C)NC(=O)[C@H](CCCNC(=N)N)NC(=O)[C@H](CCC(N)=O)NC(=O)[C@@H](NC(=O)[C@H](C)NC(=O)[C@@H]1CSSC[C@H](NC(=O)CC[C@H](NC(=O)CCCCCCCCCCCCCCCCCCC(=O)O)C(=O)O)C(=O)N[C@@H](CC(N)=O)C(=O)N[C@@H]([C@@H](C)O)C(=O)N[C@@H](C)C(=O)N[C@@H]([C@@H](C)O)C(=O)N1)[C@@H](C)O)C(=O)N[C@@H](CC(C)C)C(=O)N1CCC[C@H]1C(=O)N1CCC[C@H]1C(=O)N[C@H](C(=O)N[C@@H](CC(N)=O)C(=O)N[C@H](C(=O)NCC(=O)N[C@@H](CO)C(=O)N[C@@H](CC(N)=O)C(=O)N[C@H](C(=O)N[C@@H](Cc1ccc(O)cc1)C(N)=O)[C@@H](C)O)C(C)C)[C@@H](C)O ({C20 diacid-γGlu}-CNTATCATQRLAEFLHHSSNNFGPILPPTNVGSNTY-NH2; disulfide 1-6) | 200 (≈ 866 µg/mL) | 0.182 | 0 | 5 | 1.35 | 200 (≈ 866 µg/mL) | 0.117 | 1 | 9 | 36 | 200 (≈ 866 µg/mL) | 200 (≈ 866 µg/mL) |  | 200 (≈ 866 µg/mL) | 0.125 | 200 (≈ 866 µg/mL) | 0.469 | 0.93 | 39 | 0.3 | solubility [23]: 200 µM (≈ 866 µg/mL); solubility [24]: 200 µM (≈ 866 µg/mL)
3 | CC[C@H](C)[C@H](NC(=O)[C@@H]1CCCN1C(=O)CNC(=O)[C@H](Cc1ccccc1)NC(=O)[C@H](CC(N)=O)NC(=O)[C@H](CC(N)=O)NC(=O)[C@H](CO)NC(=O)[C@H](CO)NC(=O)[C@H](CCCNC(=N)N)NC(=O)[C@@H](NC(=O)[C@H](CC(C)C)NC(=O)[C@H](Cc1ccccc1)NC(=O)[C@H](CCC(=O)O)NC(=O)[C@H](C)NC(=O)[C@H](CC(C)C)NC(=O)[C@H](CCCNC(=N)N)NC(=O)[C@H](CCC(N)=O)NC(=O)[C@@H](NC(=O)[C@H](C)NC(=O)[C@@H]1CSSC[C@H](NC(=O)[C@H](Cc2cnc[nH]2)NC(=O)CC[C@H](NC(=O)CCCCCCCCCCCCCCCCCCC(=O)O)C(=O)O)C(=O)N[C@@H](CC(N)=O)C(=O)N[C@@H]([C@@H](C)O)C(=O)N[C@@H](C)C(=O)N[C@@H]([C@@H](C)O)C(=O)N1)[C@@H](C)O)C(C)C)C(=O)N[C@@H](CC(C)C)C(=O)N1CCC[C@H]1C(=O)N1CCC[C@H]1C(=O)N[C@H](C(=O)N[C@@H](CC(N)=O)C(=O)N[C@H](C(=O)NCC(=O)N[C@@H](CO)C(=O)N[C@@H](CC(N)=O)C(=O)N[C@H](C(=O)N[C@@H](Cc1ccc(O)cc1)C(N)=O)[C@@H](C)O)C(C)C)[C@@H](C)O ({C20 diacid-γGlu}-HCNTATCATQRLAEFLVRSSNNFGPILPPTNVGSNTY-NH2; disulfide 2-7) | 200 (≈ 889 µg/mL) | 0.027 | 2 | 30 | 0.499 | 200 (≈ 889 µg/mL) | 0.125 | 2 | 5 | 59 |  |  |  | 10 (≈ 44.5 µg/mL) | 0.083 | 1 (≈ 4.45 µg/mL) | 3.25 | 0.807 | 56 | 7 | solubility [23]: 1 µM (≈ 4.45 µg/mL); solubility [24]: 10 µM (≈ 44.5 µg/mL)
4 | CC[C@H](C)[C@H](NC(=O)[C@@H]1CCCN1C(=O)CNC(=O)[C@H](Cc1ccccc1)NC(=O)[C@H](CC(N)=O)NC(=O)[C@H](CC(N)=O)NC(=O)[C@H](CO)NC(=O)[C@H](CO)NC(=O)[C@H](Cc1cnc[nH]1)NC(=O)[C@H](Cc1cnc[nH]1)NC(=O)[C@H](CC(C)C)NC(=O)[C@H](Cc1ccccc1)NC(=O)[C@H](CCC(=O)O)NC(=O)[C@H](C)NC(=O)[C@H](CC(C)C)NC(=O)[C@H](CCCNC(=N)N)NC(=O)[C@H](CCC(N)=O)NC(=O)[C@@H](NC(=O)[C@H](C)NC(=O)[C@@H]1CSSC[C@H](NC(=O)[C@H](Cc2cnc[nH]2)NC(=O)[C@H](Cc2cnc[nH]2)NC(=O)CC[C@H](NC(=O)CCCCCCCCCCCCCCCCCCC(=O)O)C(=O)O)C(=O)N[C@@H](CC(N)=O)C(=O)N[C@@H]([C@@H](C)O)C(=O)N[C@@H](C)C(=O)N[C@@H]([C@@H](C)O)C(=O)N1)[C@@H](C)O)C(=O)N[C@@H](CC(C)C)C(=O)N1CCC[C@H]1C(=O)N1CCC[C@H]1C(=O)N[C@H](C(=O)N[C@@H](CC(N)=O)C(=O)N[C@H](C(=O)NCC(=O)N[C@@H](CO)C(=O)N[C@@H](CC(N)=O)C(=O)N[C@H](C(=O)N[C@@H](Cc1ccc(O)cc1)C(N)=O)[C@@H](C)O)C(C)C)[C@@H](C)O ({C20 diacid-γGlu}-HHCNTATCATQRLAEFLHHSSNNFGPILPPTNVGSNTY-NH2; disulfide 3-8) | 200 (≈ 920 µg/mL) | 0.048 | 9 | 5 | 0.359 | 200 (≈ 920 µg/mL) | 0.165 | 2 | 30 | 22 | 200 (≈ 920 µg/mL) | 200 (≈ 920 µg/mL) | 2 | 200 (≈ 920 µg/mL) | 0.102 |  | 0.111 | 0.221 | 40 | 0.3 | EC50 [16]: 0.221 nM; EC50 [18]: 0.147 nM
